{
  "source": "paper PMC5218480",
  "about": "(PLoS ONE, 2017)",
  "tested_on": "MV-4-11 cells",
  "test": "Gene expression microarray analysis (Affymetrix PrimeView) and GSEA",
  "format": "cell-based, human",
  "design": "RFU PODN (11730768_x_at) / Fold change /veh PODN (11730768_x_at) / RFU LINC00158 (11744669_a_at) / Fold change /veh LINC00158 (11744669_a_at) / RFU DUSP10 (11751237_a_at) / Fold change /veh DUSP10 (11751237_a_at) / RFU ID3 (11757404_x_at) / Fold change /veh ID3 (11757404_x_at) / RFU PLEKHG5 (11737974_s_at) / Fold change /veh PLEKHG5 (11737974_s_at) / RFU LRRC4B (11730491_at) / Fold change /veh LRRC4B (11730491_at) / RFU GIMAP4 (11747438_a_at) / Fold change /veh GIMAP4 (11747438_a_at) / RFU KRT8 (11758183_x_at) / Fold change /veh KRT8 (11758183_x_at) / RFU CNN1 (11734310_a_at) / Fold change /veh CNN1 (11734310_a_at) / RFU VPS37D (11726825_at) / Fold change /veh VPS37D (11726825_at) / RFU C10orf10 (11716522_x_at) / Fold change /veh C10orf10 (11716522_x_at) / RFU KIR2DL2 /// KIR2DL4 /// KIR2DL5A /// KIR2DL5B /// KIR2DS1 /// KIR2DS2 /// KIR2DS3 /// KIR2DS4 /// KIR3DL3 /// KIR3DL3 /// KIR3DS1 (11738374_at) / Fold change /veh KIR2DL2 /// KIR2DL4 /// KIR2DL5A /// KIR2DL5B /// KIR2DS1 /// KIR2DS2 /// KIR2DS3 /// KIR2DS4 /// KIR3DL3 /// KIR3DL3 /// KIR3DS1 (11738374_at) / RFU C1QL1 (11718748_at) / Fold change /veh C1QL1 (11718748_at) / RFU TMPRSS4 (11747572_a_at) / Fold change /veh TMPRSS4 (11747572_a_at) / RFU HAMP (11756126_x_at) / Fold change /veh HAMP (11756126_x_at) / RFU RNFT2 (11725882_a_at) / Fold change /veh RNFT2 (11725882_a_at) / RFU NR4A2 (11747474_a_at) / Fold change /veh NR4A2 (11747474_a_at) / RFU ABCC12 (11746883_a_at) / Fold change /veh ABCC12 (11746883_a_at) / RFU TMEM136 (11760407_x_at) / Fold change /veh TMEM136 (11760407_x_at) / RFU CLDN22 /// WWC2 (11732394_at) / Fold change /veh CLDN22 /// WWC2 (11732394_at) / RFU HLA-DPB1 (11760878_x_at) / Fold change /veh HLA-DPB1 (11760878_x_at) / RFU SPINT1 (11716480_a_at) / Fold change /veh SPINT1 (11716480_a_at) / RFU GAP43 (11754022_s_at) / Fold change /veh GAP43 (11754022_s_at) / RFU A4GNT (11735810_at) / Fold change /veh A4GNT (11735810_at) / RFU PRB3 (11715151_x_at) / Fold change /veh PRB3 (11715151_x_at) / RFU TUBB4B (11761932_at) / Fold change /veh TUBB4B (11761932_at) / RFU CAPN14 (11732068_a_at) / Fold change /veh CAPN14 (11732068_a_at) / RFU TMCC2 (11721928_a_at) / Fold change /veh TMCC2 (11721928_a_at) / RFU IRGQ (11745062_a_at) / Fold change /veh IRGQ (11745062_a_at) / RFU FAM174B (11720279_a_at) / Fold change /veh FAM174B (11720279_a_at) / RFU TMPRSS4 (11748680_a_at) / Fold change /veh TMPRSS4 (11748680_a_at) / RFU FAM212B (11763350_a_at) / Fold change /veh FAM212B (11763350_a_at) / RFU PLEKHG5 (11743358_a_at) / Fold change /veh PLEKHG5 (11743358_a_at) / RFU ZSCAN30 (11745921_a_at) / Fold change /veh ZSCAN30 (11745921_a_at) / RFU CMKLR1 (11741424_a_at) / Fold change /veh CMKLR1 (11741424_a_at) / RFU LOC101060620 /// MAPK8IP1 (11723275_at) / Fold change /veh LOC101060620 /// MAPK8IP1 (11723275_at) / RFU SPTSSB (11747773_x_at) / Fold change /veh SPTSSB (11747773_x_at) / RFU PRSS12 (11739890_at) / Fold change /veh PRSS12 (11739890_at) / RFU BIN1 (11741810_x_at) / Fold change /veh BIN1 (11741810_x_at) / RFU WNT11 (11732464_a_at) / Fold change /veh WNT11 (11732464_a_at) / RFU C10orf10 (11716521_a_at) / Fold change /veh C10orf10 (11716521_a_at) / RFU C5orf56 (11738089_at) / Fold change /veh C5orf56 (11738089_at) / RFU CYB561 (11721691_x_at) / Fold change /veh CYB561 (11721691_x_at) / RFU ANKRD19P (11752326_a_at) / Fold change /veh ANKRD19P (11752326_a_at) / RFU OR2T12 /// OR2T33 /// OR2T8 (11738714_s_at) / Fold change /veh OR2T12 /// OR2T33 /// OR2T8 (11738714_s_at) / RFU VCAN (11748164_a_at) / Fold change /veh VCAN (11748164_a_at) / RFU JSRP1 (11732532_at) / Fold change /veh JSRP1 (11732532_at) / RFU KRTAP10-11 (11738290_x_at) / Fold change /veh KRTAP10-11 (11738290_x_at) / RFU MYO3A (11730013_a_at) / Fold change /veh MYO3A (11730013_a_at) / RFU EBF3 (11725865_a_at) / Fold change /veh EBF3 (11725865_a_at) / RFU CAMK2N1 (11719241_x_at) / Fold change /veh CAMK2N1 (11719241_x_at) / RFU C5orf56 (11738088_a_at) / Fold change /veh C5orf56 (11738088_a_at) / RFU OLFML3 (11715873_a_at) / Fold change /veh OLFML3 (11715873_a_at) / RFU LOC100653217 /// NTM (11731650_a_at) / Fold change /veh LOC100653217 /// NTM (11731650_a_at) / RFU MAPK11 (11762145_a_at) / Fold change /veh MAPK11 (11762145_a_at) / RFU FIZ1 (11724087_x_at) / Fold change /veh FIZ1 (11724087_x_at) / RFU OASL (11726364_x_at) / Fold change /veh OASL (11726364_x_at) / RFU SOX15 (11748057_x_at) / Fold change /veh SOX15 (11748057_x_at) / RFU CD79A (11719716_a_at) / Fold change /veh CD79A (11719716_a_at) / RFU HIST1H1D (11736915_at) / Fold change /veh HIST1H1D (11736915_at) / RFU CASKIN2 (11723855_a_at) / Fold change /veh CASKIN2 (11723855_a_at) / RFU LOC730098 (11760151_x_at) / Fold change /veh LOC730098 (11760151_x_at) / RFU OR4N2 (11742367_at) / Fold change /veh OR4N2 (11742367_at) / RFU PRRT2 (11749266_a_at) / Fold change /veh PRRT2 (11749266_a_at) / RFU SNX32 (11753110_a_at) / Fold change /veh SNX32 (11753110_a_at) / RFU CDHR5 (11726645_a_at) / Fold change /veh CDHR5 (11726645_a_at) / RFU RCAN1 (11760418_a_at) / Fold change /veh RCAN1 (11760418_a_at) / RFU FAM167A (11723789_a_at) / Fold change /veh FAM167A (11723789_a_at) / RFU FAM26E (11764081_at) / Fold change /veh FAM26E (11764081_at) / RFU ISYNA1 (11749810_s_at) / Fold change /veh ISYNA1 (11749810_s_at) / RFU ACY1 (11761880_at) / Fold change /veh ACY1 (11761880_at) / RFU 11764098_at / Fold change /veh 11764098_at / RFU SAMD14 (11745864_x_at) / Fold change /veh SAMD14 (11745864_x_at) / RFU NPB (11741838_a_at) / Fold change /veh NPB (11741838_a_at) / RFU TMPRSS6 (11731388_a_at) / Fold change /veh TMPRSS6 (11731388_a_at) / RFU KRTAP10-2 (11738614_at) / Fold change /veh KRTAP10-2 (11738614_at) / RFU ARHGAP8 /// PRR5-ARHGAP8 (11727945_x_at) / Fold change /veh ARHGAP8 /// PRR5-ARHGAP8 (11727945_x_at) / RFU KRTAP5-7 /// NADSYN1 (11734609_at) / Fold change /veh KRTAP5-7 /// NADSYN1 (11734609_at) / RFU RASL12 (11751679_a_at) / Fold change /veh RASL12 (11751679_a_at) / RFU CDKN2B (11736163_a_at) / Fold change /veh CDKN2B (11736163_a_at) / RFU PRF1 (11729649_at) / Fold change /veh PRF1 (11729649_at) / RFU, ZNF638 /// ZNF638-IT1 / Fold change vs veh, ZNF638 /// ZNF638-IT1 / RFU, PANK3 / Fold change vs veh, PANK3 / RFU, SH3YL1 / Fold change vs veh, SH3YL1 / RFU, ZEB2 / Fold change vs veh, ZEB2 / RFU, NRIP1 / Fold change vs veh, NRIP1 / RFU, PTTG1IP / Fold change vs veh, PTTG1IP / RFU, CAPN2 / Fold change vs veh, CAPN2 / RFU, MED14 / Fold change vs veh, MED14 / RFU, SNORA58 / Fold change vs veh, SNORA58 / RFU, C1orf63 / Fold change vs veh, C1orf63 / RFU, LRRFIP1 / Fold change vs veh, LRRFIP1 / RFU, NDUFAF7 / Fold change vs veh, NDUFAF7 / RFU, SLC12A2 / Fold change vs veh, SLC12A2 / RFU, IBTK / Fold change vs veh, IBTK / RFU, ESF1 / Fold change vs veh, ESF1 / Fold change vs veh, TMEM50B / RFU, TAOK1 / Fold change vs veh, TAOK1 / RFU, ACBD3 / Fold change vs veh, ACBD3 / RFU, TMA16 / Fold change vs veh, TMA16 / RFU, RWDD3 / Fold change vs veh, RWDD3 / RFU, BCAT1 / Fold change vs veh, BCAT1 / RFU, EDEM3 / Fold change vs veh, EDEM3 / RFU, TMEM33 / Fold change vs veh, TMEM33 / RFU, WDR75 / Fold change vs veh, WDR75 / RFU, AHCTF1 / Fold change vs veh, AHCTF1 / RFU, TFRC / Fold change vs veh, TFRC / RFU, ZDHHC17 / Fold change vs veh, ZDHHC17 / RFU, NOM1 / Fold change vs veh, NOM1 / RFU, ARL8B / Fold change vs veh, ARL8B / RFU, ZBTB11 / Fold change vs veh, ZBTB11 / RFU, TAMM41 / Fold change vs veh, TAMM41 / RFU, KIAA1704 /// LOC100996395 / Fold change vs veh, KIAA1704 /// LOC100996395 / RFU, ING1 / Fold change vs veh, ING1 / RFU, TRMT61B / Fold change vs veh, TRMT61B / RFU, FUBP3 / Fold change vs veh, FUBP3 / RFU, TP53 / Fold change vs veh, TP53 / RFU, TNKS2 / Fold change vs veh, TNKS2 / RFU, ZFP14 / Fold change vs veh, ZFP14 / RFU, ACTR2 / Fold change vs veh, ACTR2 / RFU, PPP3R1 / Fold change vs veh, PPP3R1 / RFU, PIK3R1 / Fold change vs veh, PIK3R1 / RFU, HNRNPA1 / Fold change vs veh, HNRNPA1 / RFU, RNF170 / Fold change vs veh, RNF170 / RFU, ZNF28 / Fold change vs veh, ZNF28 / RFU, RNGTT / Fold change vs veh, RNGTT / RFU, OGT / Fold change vs veh, OGT / RFU, BRD1 / Fold change vs veh, BRD1 / RFU, MARS / Fold change vs veh, MARS / RFU, ZNF655 / Fold change vs veh, ZNF655 / RFU, FAHD1 / Fold change vs veh, FAHD1 / RFU, BDP1 / Fold change vs veh, BDP1 / RFU, LRRCC1 / Fold change vs veh, LRRCC1 / RFU, ARID1A / Fold change vs veh, ARID1A / RFU, ZNF146 / Fold change vs veh, ZNF146 / RFU, ZNF330 / Fold change vs veh, ZNF330 / RFU, GPN3 / Fold change vs veh, GPN3 / RFU, C9orf123 / Fold change vs veh, C9orf123 / RFU, N4BP2L2 / Fold change vs veh, N4BP2L2 / RFU, ARFIP1 / Fold change vs veh, ARFIP1 / RFU, FAM179B / Fold change vs veh, FAM179B / RFU, BCL10 / Fold change vs veh, BCL10 / RFU, UHRF1BP1L / Fold change vs veh, UHRF1BP1L / RFU, BET1 / Fold change vs veh, BET1 / RFU, CNOT2 / Fold change vs veh, CNOT2 / RFU, ZNF268 / Fold change vs veh, ZNF268 / Fold change vs veh, ZNF507 / RFU, DGCR2 / Fold change vs veh, DGCR2 / RFU, WDSUB1 / Fold change vs veh, WDSUB1 / Fold change vs veh, HSP90B1 /// MIR3652 / RFU, ADSS / Fold change vs veh, ADSS / RFU, GK / Fold change vs veh, GK / RFU, ZNF148 / Fold change vs veh, ZNF148 / RFU, TAF9 / Fold change vs veh, TAF9 / RFU, SLC1A5 / Fold change vs veh, SLC1A5 / RFU, SLMO2 / Fold change vs veh, SLMO2 / RFU, ABCC4 / Fold change vs veh, ABCC4 / RFU, LOC101060439 /// RAP1B / Fold change vs veh, LOC101060439 /// RAP1B / RFU, RFX7 / Fold change vs veh, RFX7 / RFU, GTPBP10 / Fold change vs veh, GTPBP10 / RFU, CNEP1R1 / Fold change vs veh, CNEP1R1 / RFU, BIVM-ERCC5 /// ERCC5 / Fold change vs veh, BIVM-ERCC5 /// ERCC5 / RFU, ILF3 / Fold change vs veh, ILF3 / RFU 11762660_at / Fold change /veh 11762660_at / RFU VCAN (11757783_s_at) / Fold change /veh VCAN (11757783_s_at) / RFU DDX43 (11728927_at) / Fold change /veh DDX43 (11728927_at) / RFU KRT8 (11758188_x_at) / Fold change /veh KRT8 (11758188_x_at) / RFU NKD1 (11759106_at) / Fold change /veh NKD1 (11759106_at) / RFU SRD5A1 (11742802_a_at) / Fold change /veh SRD5A1 (11742802_a_at) / RFU TPSAB1 /// TPSB2 (11721975_s_at) / Fold change /veh TPSAB1 /// TPSB2 (11721975_s_at) / RFU GSTM3 (11746129_a_at) / Fold change /veh GSTM3 (11746129_a_at) / RFU IL23R (11737362_x_at) / Fold change /veh IL23R (11737362_x_at) / RFU TMEM51 (11727254_a_at) / Fold change /veh TMEM51 (11727254_a_at) / RFU PIWIL2 (11732686_x_at) / Fold change /veh PIWIL2 (11732686_x_at) / RFU ORM1 (11744905_x_at) / Fold change /veh ORM1 (11744905_x_at) / RFU CCDC152 (11743942_at) / Fold change /veh CCDC152 (11743942_at) / RFU ECM1 (11717891_a_at) / Fold change /veh ECM1 (11717891_a_at) / RFU IL23R (11748794_a_at) / Fold change /veh IL23R (11748794_a_at) / RFU TNFAIP8L3 (11732012_x_at) / Fold change /veh TNFAIP8L3 (11732012_x_at) / RFU MBOAT4 (11741988_at) / Fold change /veh MBOAT4 (11741988_at) / RFU 11764193_at / Fold change /veh 11764193_at / RFU TMEM53 (11763286_at) / Fold change /veh TMEM53 (11763286_at) / RFU MAGEB2 (11727129_at) / Fold change /veh MAGEB2 (11727129_at) / RFU TMEM200A (11744735_a_at) / Fold change /veh TMEM200A (11744735_a_at) / RFU CCDC152 (11751479_a_at) / Fold change /veh CCDC152 (11751479_a_at) / RFU FAM211A (11726209_a_at) / Fold change /veh FAM211A (11726209_a_at) / RFU RGS16 (11746705_a_at) / Fold change /veh RGS16 (11746705_a_at) / RFU VCAN (11755009_s_at) / Fold change /veh VCAN (11755009_s_at) / RFU RHOB (11743442_s_at) / Fold change /veh RHOB (11743442_s_at) / RFU RGS16 (11720943_a_at) / Fold change /veh RGS16 (11720943_a_at) / RFU RGS16 (11720944_at) / Fold change /veh RGS16 (11720944_at) / RFU, VPS4B / Fold change vs veh, VPS4B / RFU, CREB1 / Fold change vs veh, CREB1 / RFU, DNAJC13 / Fold change vs veh, DNAJC13 / RFU, GNAQ / Fold change vs veh, GNAQ / RFU, CDK5R1 / Fold change vs veh, CDK5R1 / RFU, ZRANB3 / Fold change vs veh, ZRANB3 / RFU, CUL4A / Fold change vs veh, CUL4A / RFU, CCNY / Fold change vs veh, CCNY / RFU, UFL1 / Fold change vs veh, UFL1 / RFU, COG3 / Fold change vs veh, COG3 / RFU, DIAPH2 / Fold change vs veh, DIAPH2 / RFU, SKA2 / Fold change vs veh, SKA2 / RFU, AFF3 / Fold change vs veh, AFF3 / RFU, LMF1 / Fold change vs veh, LMF1 / RFU, IPO11 / Fold change vs veh, IPO11 / RFU, DFFB / Fold change vs veh, DFFB / RFU, FOXP1 / Fold change vs veh, FOXP1 / RFU, CARD8 / Fold change vs veh, CARD8 / RFU, STRN3 / Fold change vs veh, STRN3 / RFU, ADK / Fold change vs veh, ADK / RFU, RASSF2 / Fold change vs veh, RASSF2 / RFU, WIPF1 / Fold change vs veh, WIPF1 / RFU, LARP1B / Fold change vs veh, LARP1B / RFU, RASA1 / Fold change vs veh, RASA1 / RFU, RB1 / Fold change vs veh, RB1 / RFU, PPFIA1 / Fold change vs veh, PPFIA1 / RFU, MAT2A / Fold change vs veh, MAT2A / RFU, CCT5 / Fold change vs veh, CCT5 / RFU, WDR92 / Fold change vs veh, WDR92 / RFU, CUX1 / Fold change vs veh, CUX1 / RFU, TTC7A / Fold change vs veh, TTC7A / RFU, TMEM135 / Fold change vs veh, TMEM135 / RFU, DEPTOR / Fold change vs veh, DEPTOR / RFU, CPM / Fold change vs veh, CPM / RFU, DNAJB6 / Fold change vs veh, DNAJB6 / RFU, CACNA2D3 / Fold change vs veh, CACNA2D3 / RFU, DTX4 / Fold change vs veh, DTX4 / RFU, TFCP2 / Fold change vs veh, TFCP2 / RFU, GMCL1 /// GMCL1P1 / Fold change vs veh, GMCL1 /// GMCL1P1 / RFU, AEBP2 / Fold change vs veh, AEBP2 / RFU, SNHG1 /// SNORD22 /// SNORD25 /// SNORD26 /// SNORD27 /// SNORD28 /// SNORD29 /// SNORD31 / Fold change vs veh, SNHG1 /// SNORD22 /// SNORD25 /// SNORD26 /// SNORD27 /// SNORD28 /// SNORD29 /// SNORD31 / Fold change (Aza/veh), C12orf56 (ProbeSet 11735607_a_at) / Fold change (ACY-1035/veh), C12orf56 (ProbeSet 11735607_a_at) / Fold change (Aza/veh), FGFR1OP (ProbeSet 11751329_s_at) / Fold change (ACY-1035/veh), FGFR1OP (ProbeSet 11751329_s_at) / Fold change (Aza/veh), VPS36 (ProbeSet 11739960_a_at) / Fold change (ACY-1035/veh), VPS36 (ProbeSet 11739960_a_at) / RFU SYPL1 (11715823_x_at) / Fold change /veh SYPL1 (11715823_x_at) / RFU IGFBP7 (11715501_s_at) / Fold change /veh IGFBP7 (11715501_s_at) / RFU REEP3 (11722064_at) / Fold change /veh REEP3 (11722064_at) / RFU IGLL1 (11728026_x_at) / Fold change /veh IGLL1 (11728026_x_at): dose or concentration left out as unconfirmed",
  "conditions": "ProbeSet 11721521_at; LIST B",
  "data": [
    {"smiles": "Nc1ncn([C@@H]2O[C@H](CO)[C@@H](O)[C@H]2O)c(=O)n1", "note": "[azacitidine]", "values": [
      {"measurement": "RFU, ZDHHC17", "value": 48.06, "unit": "RFU"}
    ]}
  ]
}
